Laboratory results taken from PMC7321218, “Synthetic (E)-3-Phenyl-5-(phenylamino)-2-styryl-1,3,4-thiadiazol-3-ium Chloride Derivatives as Promising Chemotherapy Agents on Cell Lines Infected with HTLV-1” (Molecules, 2020).
Entries after “also recorded” stand apart in the source; their conditions may differ.

Columns and labels:
[1] = tested on: MT2 cells (HTLV-1-infected cell line); assay: MTT cell viability assay, MT2 cells; type: cell-based; details: Homo sapiens, 72 h incubation
Experimental: (§1) The 1 × 10^5 cells/mL were incubated with or without compounds 5a, 5b, 5c, 5d or DMSO (Sigma-Aldrich/Merck, St. Louis, MO, USA) at 37 °C in humidified atmosphere with a 5% CO2. After 72 h, the cellular viability was assessed using 5 mg/mL of 3-(4,5-dimethylthiazol-2-yl)-2,5-diphenyltetrazolium bromide (MTT, Sigma-Aldrich/Merck). Cells were incubated for 3 h, centrifuged, and formazan crystal was dissolved with DMSO. Plates were read on a Paradigma® spectrofluorometer (Molecular Devices, San Jose, CA, USA) at a 490 nm wavelength. Cell death was also evaluated using Propidium Iodide (Biolegend) exclusion after a 24 h culture under the same conditions described above. The fluorescence was examined by FACSCalibus flow cytometry (BD) and 10,000 events were acquired for the experimental data. Analysis was accomplished using Summit V4.0 or FlowJo software (Becton, Dickingson and Company, Santa Barbara, CA, USA).
(§2) Statistical analysis was performed by one-way analysis of variance (ANOVA) and means were compared using a Tukey post-test. The IC50 values were obtained using nonlinear regression. Data were analyzed using GraphPad Prism-5 software (GraphPad software, San Diego, CA, USA), and p ≤ 0.05 was considered statistically significant.

[2] = tested on: C91/PL cells (HTLV-1-infected); assay: MTT cell viability assay, C91/PL cells; type: cell-based; details: 72 h incubation
Experimental: as §1, §2

[3] = tested on: Jurkat cells; assay: MTT cell viability assay, Jurkat cells; type: cell-based; details: Homo sapiens, 72 h incubation
Experimental: as §1, §2

[4] = tested on: Jurkat cells; assay: Necrosis by propidium iodide labeling (flow cytometry), Jurkat cells; type: cell-based, human; details: 25 µM, 24 h, PI labeling
Experimental: as §1

[5] = tested on: MT2 cells; assay: Necrosis by propidium iodide labeling (flow cytometry), MT2 cells; type: cell-based; details: 25 µM, 24 h, PI labeling
Experimental: as §1

[6] = tested on: C91/PL cells; assay: Necrosis by propidium iodide labeling (flow cytometry), C91/PL cells; type: cell-based; details: 25 µM, 24 h, PI labeling
Experimental: as §1

[7] = tested on: salmon DNA; assay: DNA interaction assay (fluorescence emission); type: binding; details: 25 µM compound, DNA 2, 10 and 100 ng/mL
Experimental: Fluorescence emission spectroscopic titration experiments of DNA were conducted in the absence and presence of a constant concentration of the mesoionic compounds 5a–d. […] After that, the fluorescence emission was recorded after 1 h of DNA incubation with or without compounds 5a–d (25 µM) or DMSO, over a wavelength range of 300 to 600 nm in a Tris-acetate-EDTA buffer (Promega) at room temperature. The slit widths for excitation and emission were set to 5.0 nm. The fluorescence was examined using a F4500 fluorometer (Hitachi, New Jersey, NJ, USA).

[8] = target: T1, human serum albumin (HSA) (Homo sapiens, UniProt P02768); assay: Steady-state fluorescence quenching of HSA; type: binding; details: for Kd: Ka (modified Stern–Volmer binding constant)
T1 construct: three analogous domains (I, II, and III) having amino acid residues of 1–195, 196–383, and 384–585
T1 sequence (P02768 25-609): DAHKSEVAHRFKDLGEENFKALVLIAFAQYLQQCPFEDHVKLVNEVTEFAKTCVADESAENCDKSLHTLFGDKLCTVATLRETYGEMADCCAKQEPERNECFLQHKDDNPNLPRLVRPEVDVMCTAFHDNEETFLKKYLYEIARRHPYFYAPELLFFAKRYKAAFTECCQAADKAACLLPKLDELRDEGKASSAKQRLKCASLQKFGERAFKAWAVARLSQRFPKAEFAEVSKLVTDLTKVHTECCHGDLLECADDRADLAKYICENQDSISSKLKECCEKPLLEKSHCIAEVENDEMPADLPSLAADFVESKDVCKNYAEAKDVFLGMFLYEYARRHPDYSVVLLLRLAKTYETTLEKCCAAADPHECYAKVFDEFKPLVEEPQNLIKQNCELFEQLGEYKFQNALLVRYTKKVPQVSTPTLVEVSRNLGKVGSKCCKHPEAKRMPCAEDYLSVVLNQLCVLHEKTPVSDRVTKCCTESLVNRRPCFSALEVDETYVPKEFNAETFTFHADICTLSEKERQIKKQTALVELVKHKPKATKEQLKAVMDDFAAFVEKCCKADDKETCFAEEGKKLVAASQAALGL
Experimental: The steady-state fluorescence spectra were measured in the 290–450 nm range, at 296, 303, and 310 K, with the excitation wavelength at λ = 295 nm. To a 3.0 mL solution containing an appropriate concentration of HSA (1.00 × 10^−5 M), successive aliquots from a stock solution of each mesoionic under study (1.00 × 10^−3 M in DMSO) were added, with final concentrations of 0.17, 0.33, 0.50, 0.66, 0.83, 0.99, 1.15, and 1.32 × 10^−5 M. The addition was done manually by using a micro syringe. The inner filter correction for the observed steady-state fluorescence of HSA:mesoionic compounds was done in order to compensate for the absorption value of 5a–d at the excitation and emission wavelengths (295 and 340 nm, respectively) when applying Equation (1):(1) Fcor=Fobs10^[Aexc+Aem/2] where Fcor and Fobs are the corrected and observed steady-state fluorescence intensity values, respectively, while Aex and Aem represent absorbance values for each ligand at the excitation and emission wavelengths (λ = 295 and 340 nm, respectively).
The binding properties of each ligand toward HSA—Stern–Volmer quenching constant (KSV), bimolecular quenching rate constant (kq), modified Stern–Volmer binding constant (Ka), enthalpy change (ΔH°), entropy change (ΔS°), and Gibbs’ free energy change (ΔG°)—were calculated from the steady-state fluorescence quenching data according to Equations (2)–(5):(2) F0/F=1+kqτ0[Q]=1+KSV[Q] (3) F0/F0−F=1/f[Q]Ka+1/f (4) lnKa=−ΔH^0/RT+ΔS^0/R (5) ΔG^0=ΔH^0−TΔS^0 where F0 and F are the steady-state fluorescence intensities of HSA in the absence and presence of mesoionics, respectively. [Q] and τ0 are the ligand concentration and fluorescence lifetime, respectively, of the fluorophore in the absence of quencher (5.54 × 10^−9 s—experimental data, see Section 2.3.1). T, ƒ, and R are the temperature (296, 303, and 310 K), fraction of the initial fluorescence intensity that corresponds to fluorophore that is accessible to the quencher (f ≈ 1.0), and gas constant (8.3145 J/mol.K), respectively.

[9] = target: T1, human serum albumin (HSA); assay: Time-resolved fluorescence decay of HSA; type: binding; details: HSA 1.00 × 10^−5 M with 1.32 × 10^−5 M compound, ca 298 K
Experimental: The time-resolved fluorescence decay of a 3.0 mL solution of HSA (1.00 × 10^−5 M, in phosphate buffer solution-PBS) was measured in the absence and presence of the maximum concentration of each mesoionic used in the steady-state fluorescence studies (1.32 × 10^−5 M) at room temperature (ca 298 K).

[10] = target: T1, human serum albumin (HSA); assay: Circular dichroism of HSA (secondary structure); type: binding; details: CD, 310 K, 1.32 × 10^−5 M compound
Experimental: The CD spectra were recorded in the 200–250 nm range at 310 K for free serum albumin (1.00 × 10^−6 M) and for HSA with the higher concentration of each mesoionic used in the steady-state fluorescence studies (1.32 × 10^−5 M). Each spectrum was taken on the average of three scans. The obtained data were further converted into mean residue ellipticity (MRE) according to Equation (6):(6) MRE=θ/(10.n.l.Cp) where θ is the observed ellipticity (mdeg); n is the number of amino acid residues (585 to HSA), l is the length of the optical cuvette (1.0 cm), and Cp is the molar concentration of HSA (1.00 × 10^−6 M). The 5a–d induced helical content perturbation at 208 and 222 nm were calculated using Equation (7):(7) (A) α−helix%(−MRE208−4000)/(33000−4000)×100(B) α−helix%(−MRE222−2340)/(30300)×100 where MRE208 and MRE222 are the significant molar residual ellipticities (deg.cm^2/dmol) at 208 nm and 222 nm, respectively.

[11] = target: T1, human serum albumin (HSA); assay: Zeta potential of HSA (surface perturbation); type: binding
Experimental: All zeta potential (ZP) measurements were performed with 10 runs at 298 K and results were reported in terms of ZP ± SD. The ZP was measured for the HSA solution (1.0 × 10^−5 M in PBS solution) without and in the presence of the mesoionic compounds at the maximum concentration used in the steady-state fluorescence experiments (1.32 × 10^−5 M) at room temperature (ca. 298 K).

[12] = tested on: adult T-cell leukemia/lymphoma (ATLL); parameters: method as in PMID 25733162; details: in combination with multi-agent chemotherapy, improved from 33%; cited from earlier work

COc1ccc(Nc2n[n+](-c3ccccc3)c(/C=C/c3ccccc3)s2)cc1.[Cl-] [5b, (E)-3-Phenyl-5-(4′-methoxyphenylamino)-2-styryl-1,3,4-thiadiazol-3-ium chloride]
IC50 [1]: 5.09 µM | IC50 [2]: 4.5 µM | IC50 [3]: 1.74 µM | necrotic cells [4]: 75.37 ± 3.63% | necrotic cells [5]: 35.34 ± 7.80% | necrotic cells [6]: 33.75 ± 1.65% | interaction with DNA strands [7]: can interact with the DNA strands; also recorded: could interact with DNA strands | KSV (Stern–Volmer quenching constant) ([8]; 296 K): 1.10 ± 0.02 × 10^5 M^−1 | kq (bimolecular quenching rate constant) ([8]; 296 K): 1.99e+13 M⁻¹ s⁻¹ | ΔG° ([8]; 296 K): -6.69 kcal/mol | KSV (Stern–Volmer quenching constant) ([8]; 303 K): 1.14 ± 0.03 × 10^5 M^−1 | kq (bimolecular quenching rate constant) ([8]; 303 K): 2.06e+13 M⁻¹ s⁻¹ | ΔG° ([8]; 303 K): -6.84 kcal/mol | KSV (Stern–Volmer quenching constant) ([8]; 310 K): 1.15 ± 0.03 × 10^5 M^−1 | kq (bimolecular quenching rate constant) ([8]; 310 K): 2.07e+13 M⁻¹ s⁻¹ | ΔG° ([8]; 310 K): -6.98 kcal/mol | Kd ([8]; 296 K): 11.7 µM | Kd ([8]; 303 K): 11.8 µM | Kd ([8]; 310 K): 12.1 µM | ΔS° ([8]; van't Hoff, 296–310 K): 8.81 ± 0.06 × 10^−2 kJ.mol^−1K^−1 | Relative % of τ1 [9]: 23.9% | Relative % of τ2 [9]: 76.1% | τ1 (HSA fluorescence lifetime) [9]: 1.66 ± 0.12 ns | τ2 (HSA fluorescence lifetime) [9]: 5.25 ± 0.11 ns | α-helix % of HSA at 222 nm ([10]; HSA alone 80.1%): 77.3% | α-helix % of HSA at 208 nm ([10]; HSA alone 86.7%): 82.4% | ζ (zeta potential of HSA) ([11]; HSA with 1.32 × 10^−5 M compound, HSA alone −9.15 ± 1.79): −8.55 ± 1.46 mV | Conductance ([11]; ZP measurement, HSA with compound): 29,642 µs

B1: Mogamulizumab: anti-CCR4 monoclonal antibody (antibody, chains of the INN, looked up, V domains shown)
VH: EVQLVESGGDLVQPGRSLRLSCAASGFIFSNYGMSWVRQAPGKGLEWVATISSASTYSYYPDSVKGRFTISRDNAKNSLYLQMNSLRVEDTALYYCGRHSDGNFAFGYWGQGTLVTVSS
VL: DVLMTQSPLSLPVTPGEPASISCRSSRNIVHINGDTYLEWYLQKPGQSPQLLIYKVSNRFSGVPDRFSGSGSGTDFTLKISRVEAEDVGVYYCFQGSLLPWTFGQGTKVEIK
therapy response [12]: 52%
